{"source": "paper PMC3842230", "about": "(Biochemistry, 2013)", "tested_on": "Escherichia coli BL21 Δ7 cells", "experiment": "cells", "type": "cell-based", "settings": "BL21, 5 h, read-out: IC50 (toxic to cell growth)", "data": [{"smiles": "COc1cccc2c1C(=O)c1c(O)c3c(c(O)c1C2=O)C[C@@](O)(C(=O)CO)C[C@@H]3O[C@H]1C[C@H](N)[C@H](O)[C@H](C)O1", "note": "[Doxorubicin, doxorubicin]", "values": [{"measurement": "IC50", "result": "~1", "unit": "µM"}]}]}
